Results published in the NIST ThermoML archive (doi:10.1016/j.jct.2006.12.003).
± gives the expanded uncertainty stated by the source.

How the values were obtained:
[1] = refractive index (Na D-line) (dimensionless); conditions: 293.15 K; 101.33 kPa; Liquid; Standard Abbe refractometry
[2] = 293.15 K; 101.33 kPa; Liquid

refractive index [1]	mass density [2] [kg/m3]	SMILES
1.4445 ± 0.0007	1251 ± 1	ClCCCl [1,2-dichloroethane]
1.3713 ± 0.0007	1049.4 ± 0.3	CC(=O)O [acetic acid]

SMILES	refractive index [1]	mass density [2] [kg/m3]
Cc1ccccc1 [toluene]	1.4953 ± 0.0007	862.2 ± 0.5
